Our source for the IC50 values is US20260097047A1, “Small molecule inhibitors of the ribosome biogenesis factor NVL2” (Board of Regents, The University of Texas System, priority 2023, published 2026).

The assay relates to HCT116 cells. The assay can be described thus: Cell viability assay (CellTiter-Glo, 72 hours) in HCT116 human colorectal cancer cells. In kind it is cell-based. The method in brief:
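2,000 cells/well adhered overnight, then compound added by digital dispenser with DMSO normalized to 0.5%. Viability read after 72 h at 37 °C by ATP-based CellTiter-Glo luminescence. IC50 from ten-point curves baseline-corrected to vehicle, five-parameter asymmetric least-squares fit.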

Where [1] appears, read: Homo sapiens, HCT-116, Table 6, HCT116, 72 hours, read-out: Activity.
Where [2] appears, read: Table 7, cell viability assay, CellTiter-Glo, 72 hours, scaffold drawing 42 with R^2, R^3, X/Y, Z, read-out: Activity.
The mark [3] stands for this setting: Table 8, analogs of scaffold drawing 43 defined by R^2, R^3, X/Y, W, read-out: Activity (IC50 class, cell viability assay).
Setting [4] is: Table 1, HCT116, 72 hours, read-out: Activity.
[5] abbreviates: Homo sapiens, HCT-116, Table 5, HCT116, 72 hours, read-out: Activity.
The mark [6] stands for this setting: Table 9, HCT116, 72 hours, read-out: Activity.
Setting [7] is: Table 6, HCT116, 72 hours, read-out: Activity.

Where two headings read alike, the source gives them in different places. A value given as a limit tells only on which side of the number the result lay.

With `CC#CCN1C(=O)c2ccccc2Sc2cc(NC3CCOC3C)ccc21` (centres unmarked) [10-(But-2-yn-1-yl)-7-((2-methyltetrahydrofuran-3-yl)amino)dibenzo[b,f][1,4]thiazepin-11 (10H)-one], under setting [1], the IC50 is less than 500 nM.

For `COCCN1C(=O)c2ccccc2Sc2cc(NC(=O)c3cscn3)ccc21` [—(CH2)2OMe; thiazol-4-yl; CH/CH; S], under setting [2], the IC50 lay in the range of 1000 to 5000 nM.

Turning to `CC#CCN1C(=O)c2ccccc2Sc2cc(NC(=O)C#CCOC)ccc21` [—CH2CCMe; CCCH2OMe; CH/CH; CH], the IC50 under setting [3] lay in the range of 500 to 1000 nM.

For `CC#CCN1C(=O)c2ccc(Cl)cc2Sc2cc(NC(=O)N3CCCCC3)ccc21`, the IC50 under setting [4] was less than 500 nM.

For the compound `CC#CCN1C(=O)c2ccccc2Sc2cc(Nc3ncnc(C#N)n3)ccc21` [4-((10-(But-2-yn-1-yl)-11-oxo-10,11-dihydrodibenzo[b,f][1,4]thiazepin-7-yl)amino)-1,3,5-triazine-2-carbonitrile], the IC50 under setting [5] lay within 1000 to 5000 nM.

Turning to `CCCC=CCN1C(=O)c2ccccc2Sc2cc(Nc3ncc(C)cc3C)cnc21`, under “Table 5, HCT116, 72 hours, read-out: Activity”, the IC50 is less than 500 nM.

As to `CCC/C=C/CN1C(=O)c2ccccc2Sc2cc(Nc3cc(C(C)C)ccn3)ccc21` [(E)-10-(Hex-2-en-1-yl)-7-((4-isopropylpyridin-2-yl)amino)dibenzo[b,f][1,4]thiazepin-11 (10H)-one], the IC50 under setting [5] is less than 500 nM.

In the case of `CCC/C=C/CN1C(=O)c2ccccc2Sc2cc(Nc3ncccc3F)ccc21` [(E)-7-((3-Fluoropyridin-2-yl)amino)-10-(hex-2-en-1-yl)dibenzo[b,f][1,4]thiazepin-11 (10H)-one], the IC50 under setting [5] is less than 500 nM.

Regarding `C#CCN1C(=O)c2ccc(Cl)cc2Sc2cc(NC(=O)[C@H]3C[C@H](OC)C3)ccc21` [—CH2CCH; trans-3-MeOcBu; CCl/CH; CH], under setting [3], the IC50 is less than 500 nM.

As for `CC#CCN1C(=O)c2ccccc2Sc2cc(NC3CC4CCC3C4)ccc21` (centres unmarked) [7-(Bicyclo[2.2.1]heptan-2-ylamino)-10-(but-2-yn-1-yl)dibenzo[b,f][1,4]thiazepin-11 (10H)-one], the IC50 under setting [1] is less than 500 nM.

On to `COCCN1C(=O)c2ccccc2Sc2cc(NC(=O)c3ccc4ocnc4c3)ccc21`, for which the IC50 under setting [2] is less than 500 nM.

Consider `CC#CCN1C(=O)c2ccccc2Sc2cc(NC(=O)N[C@H]3C[C@H](O)C3)cnc21` [Table 3: —CH2CCMe; trans-3-OH-cBu; CH/N], for which the IC50 (Table 3, HCT116, 72 hours, read-out: Activity) was less than 500 nM.

Regarding `CC1c2ccccc2C(=O)N(CC#CC2CC2)c2ccc(NC(=O)C3CC4(CC(=O)C4)C3)cc21` (centres unmarked), the IC50 under setting [6] is less than 500 nM.

Take `COCC1CC(Nc2cnc3c(c2)Sc2ccccc2C(=O)N3CC#CCl)C1` (centres unmarked) [Table 6: —CH2CCCl; 3-MeOCH2-cBu; CH/N; S]: the IC50 under setting [7] is less than 500 nM.

For the compound `CC#CCN1C(=O)c2ccccc2Sc2cc(NC34CC(C3)C4)cnc21`, the IC50 under setting [7] is less than 500 nM.

`CC#CCN1C(=O)c2ccccc2Sc2cc(NC(=O)N3CCCC3)cnc21`: under setting [4], the IC50 is less than 500 nM.

With `O=C1c2ccccc2Sc2cc(NC3CC4(COC4)C3)ccc2N1CC#CCl`, under setting [7], the IC50 is less than 500 nM.

For the compound `CO[C@H]1C[C@H](C(=O)Nc2ccc3c(c2)Sc2ccc(F)cc2C(=O)N3CC#CCl)C1` [—CH2CCCl; trans-3-MeOcBu; CH/CF; CH], the IC50 under setting [3] is less than 500 nM.

As for `CC#CCN1C(=O)c2ccccc2Cc2cc(Nc3ncnc(C#N)c3C)ccc21` [6-((5-(But-2-yn-1-yl)-6-oxo-6,11-dihydro-5H-dibenzo[b,e]azepin-2-yl)amino)-5-methylpyrimidine-4-carbonitrile], the IC50 under setting [5] was less than 500 nM.

For `CC1c2ccccc2C(=O)N(CC#CC2CC2)c2ccc(NC(=O)[C@H]3C[C@H](O)C3)cc21` (some centres unmarked), the IC50 under setting [6] is less than 500 nM.

Consider `CC#CCN1C(=O)c2ccc(C#N)cc2Sc2cc(Nc3nnccc3C#N)ccc21` [10-(But-2-yn-1-yl)-7-((4-cyanopyridazin-3-yl)amino)-11-oxo-10,11-dihydrodibenzo[b,f][1,4]thiazepine-3-carbonitrile], for which the IC50 under setting [5] is less than 500 nM.

As for `C#CCN1C(=O)c2ccccc2Sc2cc(NC3CC(OC)C3)cnc21` (centres unmarked) [Table 6: —CH2CCH; 3-MeOcBu; CH/N; S], the IC50 under setting [7] is less than 500 nM.

`CC#CCN1C(=O)c2ccccc2C(C)c2cc(NC(=O)CCCO)ccc21` (centres unmarked) [Table 9: —CH2CCMe; (CH2)3OH; CHMe]: under setting [6], the IC50 was less than 500 nM.
